Results reported in US20260034051A1, “STABLE INJECTABLE CANNABIDIOL FORMULATIONS” (CARDIOL THERAPEUTICS INC., priority 2022, published 2026).

Test: Solubility of cannabidiol in alkyl esters of octanoic acid
Assay type: physicochemical
Details: in methyl octanoate and/or ethyl octanoate
Protocol: The cannabidiol can be present in an amount of from about 100 mg/mL. The cannabidiol can also be present in an amount up to about 150 mg/mL, 200 mg/ml, 250 mg/mL, 300 mg/mL, or 350 mg/mL, with higher concentrations of cannabidiol being preferred to reduce injection volume and promote ease of administration while reducing patient discomfort. The identity of ingredients and their amounts in the solvent system will determine the actual amount of cannabidiol that can be fully dissolved. […] Therefore, the higher the amount of alkyl ester of fatty acid that is present, the higher the amount of cannabidiol that can be dissolved.

With C=C(C)[C@@H]1CCC(C)=C[C@H]1c1c(O)cc(CCCCC)cc1O [cannabidiol, Cannabidiol] the “amount of cannabidiol that can be dissolved” value was “at least 750 mg/mL”.
